In assay [1] the test system is PCP-induced NOR deficits in sub-chronic PCP treated rats. The experiment in a line: Novel object recognition (NOR) test after subchronic PCP treatment. The assay is classed as in vivo, Female Long-Evans rats. The settings on record: for Acquisition (sec) Left, exploration time / Acquisition (sec) Right, exploration time / Retention (sec) Familiar, exploration time / Retention (sec) Novel, exploration time: mean±SEM; for Effective dose for reversing PCP-induced NOR deficits / Sub-effective dose in PCP-induced NOR deficit: single agent, acute administration after subchronic PCP. As for the experimental part:
Female Long-Evans rats received vehicle or PCP (2 mg/kg, i.p.) twice daily for 7 days, followed by a 7-day washout period (n=6-9/group). Phencyclidine (PCP) which is known to induce schizophrenia-like symptoms in human normal subjects and to exacerbate symptoms in patients with schizophrenia was dissolved in distilled water and administered in a volume of 1 ml/kg.
On the test day, in the first set of experiments, lurasidone HCl (0.03 and 0.1 mg/kg; produced by Dainippon Sumitomo Pharma Co., Ltd.), clozapine (0.3 mg/kg), LY379268 (1 mg/kg; Tocris Bioscience) alone, or haloperidol (0.1 mg/kg), pimavanserin (3 mg/kg), lurasidone HCl (0.03 mg/kg), clozapine (0.1 mg/kg) in combination with LY379268 (1 mg/kg) were administered intraperitoneally in a volume of 1 ml/kg, 30 min before the novel object recognition (NOR) test. In the second set of experiments, LY404039 (1 mg/kg; produced by Dainippon Sumitomo Pharma Co., Ltd.) alone was orally administered in a volume of 4 ml/kg 60 min before the novel object recognition (NOR) test. For combination with lurasidone HCl, LY404039 (1 mg/kg, p.o.) and lurasidone HCl (0.03 mg/kg, i.p.) were administered 60 min and 30 min before the novel object recognition (NOR) test, respectively. In the third set of experiments, BINA (30 mg/kg; produced by Dainippon Sumitomo Pharma Co., Ltd.) alone or BINA (30 mg/kg) in combination with lurasidone HCl (0.03 mg/kg) was administered intraperitoneally in a volume of 1 ml/kg 30 min before the novel object recognition (NOR) test.
Haloperidol, pimavanserin, and LY404039 were dissolved in distilled water. Lurasidone HCl was dissolved 0.5% methylcellulose, 0.2% Tween 80. Clozapine was dissolved in a small amount of 0.1 M phosphoric acid, and the pH was adjusted to 6 to 7 with 0.1 N NaOH. LY379268 was dissolved in saline. BINA was dissolved in 10% Tween 80, 10% 1N NaOH, and the pH was adjusted to 7 with 1N HCl.
The object recognition test was performed in an open field comprising a square box made of Plexiglas (52/52/31 cm) placed 37 cm above the floor on an immoveable stand. The floor of the box was white with black gridlines forming nine identical squares on it. All other walls were black. A video camera connected to a video recorder and monitor was positioned above the box. The objects used for the test consisting of four heavy pyramidal structures made of metal or Perspex that could not be displaced by the animals. Care was taken to ensure that these objects were not of any natural significance to the rats.
Testing was carried out according to a previously validated method (Grayson et al., Behay. Brain Res. 2007 184, 31-38; Snigdha et al., J. Pharmacol. Exp. Ther., 2010 332 (2), 622-31). The rats were familiarized to the test environment and NOR arena before the test day. Habituation consisting of placing the subjects in the empty NOR arena for 1 h, on the day before the test day (day 1). Before behavioral testing on day 2, rats were given a further 3-min habituation. For each experimental trial after the 3-min habituation period, the rats were given two 3-min trials (T1 and T2), separated by a 1-min intertrial interval in the home cage during which the objects were changed and the arena was cleaned. In Trial 1 (T1) or the acquisition trial, the animals were allowed to explore two identical objects (A1 and A2) for 3 min. In the second trial (T2) or the retention trial, the animals explored a familiar object (A) from T1 and a novel object (B) for 3 min. The familiar object presented during T2 was a duplicate of the object presented in T1 to avoid any olfactory trails. Each rat was tested three or four times in the NOR paradigm. To reduce carryover effects, a 7-day washout period was given between each of the test sessions. The criterion for continuing to test the rats was based on mean total exploration time in the acquisition or retention phase 5 seconds. […] This happened rarely and not enough to affect the ability to use the remaining animals for analysis. […]

Assay [2] addresses dopamine D2 receptor (Homo sapiens, UniProt P14416). Conditions: cited from earlier work.
Assay [3] concerns the target serotonin 5-HT7 receptor (Homo sapiens, UniProt P34969). The settings on record: cited from earlier work.
Assay [4] concerns the target T1, serotonin 5-HT1A receptor (Homo sapiens, UniProt P08908).
T1 sequence (P08908 1-422): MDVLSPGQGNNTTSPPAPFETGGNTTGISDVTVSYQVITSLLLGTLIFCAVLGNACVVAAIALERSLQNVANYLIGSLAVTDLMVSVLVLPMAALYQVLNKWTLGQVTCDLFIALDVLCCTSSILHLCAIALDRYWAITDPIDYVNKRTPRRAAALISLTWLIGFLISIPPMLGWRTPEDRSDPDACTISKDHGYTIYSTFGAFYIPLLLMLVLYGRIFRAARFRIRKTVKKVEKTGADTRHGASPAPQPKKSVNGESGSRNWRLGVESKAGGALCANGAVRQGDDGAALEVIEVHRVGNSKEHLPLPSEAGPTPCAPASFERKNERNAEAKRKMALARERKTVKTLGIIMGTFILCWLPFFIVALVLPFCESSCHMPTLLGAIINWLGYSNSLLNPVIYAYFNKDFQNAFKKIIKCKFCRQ
Conditions: cited from earlier work.

Assay [5] addresses histamine H1 receptor (Homo sapiens, UniProt P35367). Conditions: cited from earlier work.
Assay [6] addresses T2, noradrenaline α2C receptor (Homo sapiens, UniProt P18825).
T2 sequence (P18825 1-462): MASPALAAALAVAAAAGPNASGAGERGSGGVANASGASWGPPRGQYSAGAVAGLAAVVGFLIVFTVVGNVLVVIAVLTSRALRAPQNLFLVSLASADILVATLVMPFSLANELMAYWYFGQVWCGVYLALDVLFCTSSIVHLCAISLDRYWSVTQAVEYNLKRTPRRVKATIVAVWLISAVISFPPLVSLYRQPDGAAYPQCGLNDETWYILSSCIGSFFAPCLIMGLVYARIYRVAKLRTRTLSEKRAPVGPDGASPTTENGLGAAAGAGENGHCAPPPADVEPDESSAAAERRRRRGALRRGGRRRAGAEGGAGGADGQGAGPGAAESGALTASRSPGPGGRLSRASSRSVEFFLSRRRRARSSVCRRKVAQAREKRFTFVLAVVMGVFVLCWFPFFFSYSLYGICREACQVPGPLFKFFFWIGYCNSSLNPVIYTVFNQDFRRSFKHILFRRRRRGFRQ
The settings on record: cited from earlier work.

The target in assay [7] is T3, muscarinic M1 receptor (Homo sapiens, UniProt P11229).
T3 sequence (P11229 1-460): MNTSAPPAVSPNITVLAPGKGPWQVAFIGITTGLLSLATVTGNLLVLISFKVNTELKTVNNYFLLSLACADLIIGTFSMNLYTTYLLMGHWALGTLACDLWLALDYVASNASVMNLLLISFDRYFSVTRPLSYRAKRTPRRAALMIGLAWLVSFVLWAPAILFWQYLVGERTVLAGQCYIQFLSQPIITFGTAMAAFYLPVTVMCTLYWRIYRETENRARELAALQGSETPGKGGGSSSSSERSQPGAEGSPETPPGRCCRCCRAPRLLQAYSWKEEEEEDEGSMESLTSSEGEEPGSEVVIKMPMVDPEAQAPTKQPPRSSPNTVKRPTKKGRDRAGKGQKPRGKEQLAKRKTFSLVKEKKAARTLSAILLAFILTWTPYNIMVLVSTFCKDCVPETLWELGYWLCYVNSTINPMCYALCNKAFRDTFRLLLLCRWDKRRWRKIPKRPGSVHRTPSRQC
Conditions: cited from earlier work.

Assay [8] has as its target serotonin 5-HT2A receptor (Homo sapiens, UniProt P28223). Conditions: cited from earlier work.
Setting [9] is: PCP + BINA 30 mg/kg i.p. 30 min before NOR, n=7 to 9.
Where [10] appears, read: PCP + clozapine 0.1 mg/kg, n=6 to 8.
The mark [11] stands for this setting: PCP + clozapine 0.3 mg/kg i.p. 30 min before NOR, n=6 to 8.
Where [12] appears, read: PCP + LY379268 1 mg/kg i.p. 30 min before NOR, n=6 to 8.
Where [13] appears, read: PCP + LY404039 1 mg/kg p.o. 60 min before NOR, n=7 to 8.
Setting [14] is: PCP + lurasidone HCl 0.03 mg/kg i.p. 30 min before NOR, n=7 to 8.
[15] abbreviates: PCP + lurasidone HCl 0.1 mg/kg i.p. 30 min before NOR, n=7 to 8.

We go through six compounds from patent US8735397B2, “Method for treating schizophrenia and related diseases” (Vanderbilt University, priority 2010, dated 2014).

Entries after “also recorded” stand apart in the source; their conditions may differ. Where a name gives a salt, the structure may show the parent alone.

histamine H1 receptor, sequence (P35367 whole entry): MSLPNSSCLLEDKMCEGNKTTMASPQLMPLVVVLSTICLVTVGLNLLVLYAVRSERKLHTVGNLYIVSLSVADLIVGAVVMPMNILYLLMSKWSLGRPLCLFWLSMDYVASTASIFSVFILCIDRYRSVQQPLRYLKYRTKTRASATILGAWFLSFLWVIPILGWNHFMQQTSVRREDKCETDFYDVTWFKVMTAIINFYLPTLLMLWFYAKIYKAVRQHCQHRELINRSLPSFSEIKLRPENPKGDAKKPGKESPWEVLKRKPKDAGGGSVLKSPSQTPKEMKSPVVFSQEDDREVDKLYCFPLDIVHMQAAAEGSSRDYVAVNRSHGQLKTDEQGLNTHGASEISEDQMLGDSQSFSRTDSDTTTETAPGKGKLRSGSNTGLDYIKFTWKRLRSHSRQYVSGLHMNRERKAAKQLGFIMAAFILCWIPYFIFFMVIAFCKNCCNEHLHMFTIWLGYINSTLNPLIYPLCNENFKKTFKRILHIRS
serotonin 5-HT7 receptor, sequence (P34969 whole entry): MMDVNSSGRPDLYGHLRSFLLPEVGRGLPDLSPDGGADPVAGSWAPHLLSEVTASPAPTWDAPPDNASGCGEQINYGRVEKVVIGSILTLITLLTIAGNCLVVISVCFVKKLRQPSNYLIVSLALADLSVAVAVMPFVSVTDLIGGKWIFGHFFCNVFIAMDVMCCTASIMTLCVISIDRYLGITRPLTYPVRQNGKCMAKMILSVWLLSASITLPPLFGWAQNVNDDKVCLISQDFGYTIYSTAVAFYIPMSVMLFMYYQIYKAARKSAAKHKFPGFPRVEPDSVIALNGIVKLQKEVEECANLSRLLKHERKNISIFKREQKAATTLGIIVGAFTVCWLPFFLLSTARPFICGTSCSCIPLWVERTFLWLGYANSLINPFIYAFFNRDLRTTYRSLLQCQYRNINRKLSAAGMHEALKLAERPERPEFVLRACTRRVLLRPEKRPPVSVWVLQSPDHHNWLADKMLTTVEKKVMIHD
serotonin 5-HT2A receptor, sequence (P28223 whole entry): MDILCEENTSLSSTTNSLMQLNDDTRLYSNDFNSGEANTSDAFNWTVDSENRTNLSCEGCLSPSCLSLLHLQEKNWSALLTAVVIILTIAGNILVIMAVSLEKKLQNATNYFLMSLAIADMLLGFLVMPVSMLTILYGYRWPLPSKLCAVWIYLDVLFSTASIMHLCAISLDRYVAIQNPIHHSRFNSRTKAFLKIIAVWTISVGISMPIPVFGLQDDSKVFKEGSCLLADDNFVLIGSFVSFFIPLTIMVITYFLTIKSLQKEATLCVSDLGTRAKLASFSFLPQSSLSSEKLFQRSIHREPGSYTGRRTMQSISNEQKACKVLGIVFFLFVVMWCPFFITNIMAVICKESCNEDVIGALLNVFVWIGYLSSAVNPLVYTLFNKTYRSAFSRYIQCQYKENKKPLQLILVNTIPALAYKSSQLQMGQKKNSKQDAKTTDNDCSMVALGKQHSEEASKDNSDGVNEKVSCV
dopamine D2 receptor, sequence (P14416 whole entry): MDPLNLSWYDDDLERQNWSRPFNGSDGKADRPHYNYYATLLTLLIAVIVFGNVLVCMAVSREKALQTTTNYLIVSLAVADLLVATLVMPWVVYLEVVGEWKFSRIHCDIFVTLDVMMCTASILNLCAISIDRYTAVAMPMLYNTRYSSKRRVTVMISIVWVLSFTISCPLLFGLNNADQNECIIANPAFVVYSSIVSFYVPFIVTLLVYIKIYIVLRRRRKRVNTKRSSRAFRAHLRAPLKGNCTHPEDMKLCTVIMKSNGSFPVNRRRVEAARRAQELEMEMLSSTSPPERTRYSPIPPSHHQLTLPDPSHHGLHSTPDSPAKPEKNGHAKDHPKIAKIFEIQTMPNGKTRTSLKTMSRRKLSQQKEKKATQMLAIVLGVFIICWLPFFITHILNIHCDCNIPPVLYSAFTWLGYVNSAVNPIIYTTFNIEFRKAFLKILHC

Take `Cc1c(OCc2cccc(-c3ccc(C(=O)O)cc3)c2)cc2c(c1C)C(=O)C(C1CCCC1)C2` (stereo not shown) [BINA, 3′-(2-Cyclopentyl-6,7-dimethyl-1-oxoindan-5-yloxy-methyl)biphenyl-4-carboxylic acid]: in assay [1] (BINA alone 30 mg/kg i.p.), the “Effect on PCP-induced NOR deficits” value is “did not attenuate the PCP-induced NOR deficits; also recorded: did not improve the PCP-induced deficit in NOR”. Besides, in assay [1] (setting [9]), the “Acquisition (sec) Left, exploration time” value was found to be 9.8 ± 1.5 s; the “Acquisition (sec) Right, exploration time” value (shortened to “Acquisition (sec) Right”) was 10.7 ± 2.0 s; the “Retention (sec) Familiar, exploration time” value (“Retention (sec) Familiar” for short) was found to be 6.0 ± 1.1 s; the “Retention (sec) Novel, exploration time” value worked out at 7.9 ± 1.0 s.

Take `CN1CCN(C2=Nc3cc(Cl)ccc3Nc3ccccc32)CC1` [Clozapine]: in assay [1] (setting [10]), the “Acquisition (sec) Left, exploration time” value was found to be 12.7 ± 3.5 s; the “Acquisition (sec) Right” value was 10.6 ± 2.1 s; the “Retention (sec) Familiar” value was determined as 9.1 ± 1.9 s; the “Retention (sec) Novel, exploration time” value worked out at 11.0 ± 2.8 s. Also, in assay [1] (setting [11]), the “Acquisition (sec) Left, exploration time” value was 13.1 ± 2.9 s; the “Acquisition (sec) Right” value came out at 11.4 ± 2.5 s; the “Retention (sec) Familiar” value was 7.3 ± 1.7 s; the “Retention (sec) Novel, exploration time” value amounted to 16.3 ± 2.8 s. In assay [1], the “Effective dose for reversing PCP-induced NOR deficits” value worked out at 0.3 mg/kg and the “Sub-effective dose in PCP-induced NOR deficit” value came to 0.1 mg/kg.

As for `N[C@@]1(C(=O)O)CO[C@H]2[C@H](C(=O)O)[C@H]21` [LY379268, (1R,4R,5S,6R)-4-Amino-2-oxabicyclo[3.1.0]hexane-4,6-dicarboxylic acid], in assay [1] (LY379268 alone 1 mg/kg i.p.), the “Effect on PCP-induced NOR deficits” value is reported as “did not attenuate the PCP-induced NOR deficits; also recorded: did not attenuate the PCP-induced deficit in NOR”. In assay [1] (setting [12]), the “Acquisition (sec) Left, exploration time” value worked out at 12.4 ± 2.6 s; the “Acquisition (sec) Right” value was found to be 11.0 ± 4.2 s; the “Retention (sec) Familiar” value was determined as 8.3 ± 1.5 s; the “Retention (sec) Novel, exploration time” value was found to be 9.7 ± 2.2 s.

For the compound `N[C@@]1(C(=O)O)CS(=O)(=O)[C@H]2[C@H](C(=O)O)[C@H]21` [LY404039, (−)-(1R,4S,5S,6S)-4-Amino-2-thiabicyclo[3.1.0]hexane-4,6-dicarboxylic acid S,S-dioxide], the “Effect on PCP-induced NOR deficits” value in assay [1] (LY404039 alone 1 mg/kg p.o.) was “did not attenuate the PCP-induced NOR deficits; also recorded: did not improve the PCP-induced deficit in NOR”. Further, in assay [1] (setting [13]), the “Acquisition (sec) Left, exploration time” value worked out at 9.3 ± 0.8 s; the “Acquisition (sec) Right” value stood at 8.4 ± 0.9 s; the “Retention (sec) Familiar” value amounted to 5.5 ± 1.1 s; the “Retention (sec) Novel, exploration time” value came to 7.3 ± 0.8 s.

On to `O=C1[C@@H]2[C@H]3CC[C@H](C3)[C@@H]2C(=O)N1C[C@@H]1CCCC[C@H]1CN1CCN(c2nsc3ccccc23)CC1` [Lurasidone HCl], for which, in assay [1] (setting [14]), the “Acquisition (sec) Left, exploration time” value turned out to be 11.4 ± 3.1 s; the “Acquisition (sec) Right” value was found to be 8.3 ± 1.8 s; the “Retention (sec) Familiar” value amounted to 7.6 ± 2.3 s; the “Retention (sec) Novel, exploration time” value amounted to 8.9 ± 1.7 s. Moreover, in assay [1] (setting [15]), the “Acquisition (sec) Left, exploration time” value came to 10.9 ± 1.3 s; the “Acquisition (sec) Right” value turned out to be 10.9 ± 0.8 s; the “Retention (sec) Familiar” value came to 4.6 ± 1.0 s; the “Retention (sec) Novel, exploration time” value stood at 11.4 ± 2.2 s. Further, the “Effective dose for reversing PCP-induced NOR deficits” value in assay [1] is 0.1 mg/kg.

As for `O=C1[C@@H]2[C@H]3CC[C@H](C3)[C@@H]2C(=O)N1C[C@@H]1CCCC[C@H]1CN1CCN(c2nsc3ccccc23)CC1` [Lurasidone, (3aR,4S,7R,7aS)-2-{(1R,2R)-2-[4-(1,2-benzisothiazol-3-yl)piperazin-1-ylmethyl]cyclo-hexylmethyl}hexahydro-4,7-methano-2H-isoindole-1,3-dione], in assay [1], the “Effective dose for reversing PCP-induced NOR deficits” value stood at 0.1 mg/kg and the “Sub-effective dose in PCP-induced NOR deficit” value is reported as 0.03 mg/kg. Further, in assay [2], the “Affinity for dopamine D2 receptors” value is “high affinity”. In addition, in assay [3], the “Affinity for serotonin 5-HT7 receptors” value is “high affinity”. Also, the “Affinity for serotonin 5-HT1A receptors” value in assay [4] is reported as “high affinity”. Moreover, the “Affinity for histamine H1 receptors” value in assay [5] is “minimal to no affinity”. In addition, in assay [6], the “Affinity for noradrenaline α2C receptors” value is listed as “high affinity”. In assay [7], the “Affinity for muscarinic M1 receptors” value is recorded as “minimal to no affinity”. In addition, in assay [8], the “Affinity for serotonin 5-HT2A receptors” value was “high affinity”.
